The text below walks through data of US5304474A, “Hydrophobic peptide esters and amides” (Board of Regents, The University of Texas System, priority 1991, dated 1994).

“Also recorded” adds a separate entry of the source. Peptide text beside a SMILES is read from it. * marks the point of attachment. βNA = c1ccc2cc(N*)ccc2c1

Series [1] deals with natural killer cells (NK). Put plainly: NK function: lysis of K562 target cells (51Cr release) after preincubation of lymphocytes with compound. Conditions: for NK toxicity / effect on NK function, in words: lymphocytes exposed 15 minutes at room temperature (FIG. 4, FIG. 5); for NK Toxicity (LD50): concentration which results in 50% loss of human NK function, PBL 15 minutes at 22° C.; for NK Function % Specific Cytotoxicity: Nil 50.8 (Table 2); for prevention of Leu-OMe ablation of NK activity / permanent effect on NK function: PBM; for prevention of Leu-OMe ablation of NK activity: 5 mM Leu-OMe with lysosomal inhibitor (FIG. 1); for permanent effect on NK function: agent alone, washed, 18 hours culture, E:T 40:1 (FIG. 1); for effect of unesterified dipeptides on NK cell survival or lytic activity: up to 5×10^-3 M.
Method: PBM were separated from heparinized venous blood of healthy donors by centrifugation over sodium diatrizoate-Ficoll gradients (Isolymph, Gallard-Schlesinger Chemical Mfg. Corp., Carle Place, N.Y.).
All cell exposures to the amino acids, dipeptides or their methyl esters were carried out by suspending cells in Dulbecco's phosphate buffered saline (PBS) and incubating them at room temperature with the reagent at the indicated concentration and time interval.
Percent of control cytotoxicity was calculated using the formula: [formula]

Series [2] concerns [^3 H]Leu-Leu-OMe uptake by PBL (facilitated transport). Put plainly: Competitive inhibition of [3H]Leu-Leu-OMe uptake. The format is cell-based, human. The note with it: for inhibition at 250 µM: Homo sapiens, unlabeled compound 250 microM. Here is the method:
Human peripheral blood lymphocytes (PBL) were incubated in the presence of [^3 H]labeled Leu-Leu-OMe at 22° C. for varying lengths of time. The incubation mixture was then centrifuged through silicone oil to separate the cells from any unbound or non-internalized [^3 HLeu-Leu-OMe. […] At 37° C., levels of [^3 H]Leu-Leu-OMe accumulation by PBL were increased above those seen at 22° C. (see Table 4).

[3] abbreviates: [3H]Leu-Leu-OMe 10 microM (Table 6).
Where [4] appears, read: 250 micro-M, Nil 40.8 (Table 16).
Where [5] appears, read: [3H]Leu-Leu-OMe 10 microM (Table 5).

In the case of `COC(=O)[C@H](CC(C)C)NC(=O)[C@H](C)N` [Ala-Leu-OMe] (H-Ala-Leu-OMe), the “NK toxicity / effect on NK function, in words” value (“NK toxicity / effect” for short) in series [1] is on record as “had no NK inhibitory effects”.

`COC(=O)[C@H](CC(C)C)NC(=O)[C@@H](N)CC(=O)O` [Asp-Leu-OMe] (H-Asp-Leu-OMe): in series [2], the “competitive inhibition of [3H]Leu-Leu-OMe uptake, in words” value (“competitive inhibition” for short) was “not competitively inhibited”. In addition, the “NK toxicity / effect” value in series [1] is on record as “exhibit no NK toxicity”.

A word on the inhibition: it is the relative decrease from the control value, in per cent. As for `COC(=O)[C@H](Cc1ccccc1)NC(=O)[C@@H](N)CC(=O)O` [Asp-Phe-OMe, aspartyl phenylalanine methyl ester] (H-Asp-Phe-OMe), in series [2] (setting [3]), the inhibition at 250 µM worked out at 8%. Besides, the “NK Toxicity (LD50)” value in series [1] is above 250 micro-M. In addition, the “NK toxicity / effect” value in series [1] was “no observed NK inhibitory effects”. For the same compound, the “NK Function % Specific Cytotoxicity” value stood at 54.2% in series [1] (preincubation 100 micromolar), 45.7% in series [1] (preincubation 250 micromolar), 45.7% in series [1] (preincubation 500 micromolar) and 46.9% in series [1] (preincubation 1000 micromolar).

In the case of `COC(=O)[C@H](CC(C)C)NC(=O)CN` [Gly-Leu-OMe], the “NK toxicity / effect” value in series [1] is on record as “greatly reduced NK toxicity”.

Take `NCC(=O)N[C@@H](Cc1ccccc1)C(N)=O` [Gly-Phe-NH2] (H-Gly-Phe-NH2): in series [1] (setting [4]), the “NK Function % Specific Lysis K562” value came out at 43.9%. For the same compound, the “NK toxicity / effect” value in series [1] is listed as “has no apparent NK toxic effects”.

`COC(=O)[C@H](Cc1ccccc1)NC(=O)CN` [Gly-Phe-OMe] (H-Gly-Phe-OMe): the “NK Function % Specific Lysis K562” value in series [1] (setting [4]) is listed as 34.5%; in series [1] (500 micro-M, Nil 40.8 (Table 16)) it was 10.1%. In series [1], the “NK toxicity / effect” value is listed as “a much less potent NK toxin than is Leu-Leu-OMe”.

Take `NCC(=O)N[C@@H](Cc1ccccc1)C(=O)Nc1ccc2ccccc2c1` [Gly-Phe-beta-naphthylamide, glycyl L-phenylalanyl beta napthylamide] (H-Gly-Phe-βNA): in series [2], the “competitive inhibition” value was “competitively inhibits [^3 H]Leu-Leu-OMe uptake by lymphocytes”. Moreover, the “NK Function % Specific Lysis K562” value in series [1] (1 micro-M, Nil 40.8 (Table 16)) is recorded as 52.5%; in series [1] (5 micro-M, Nil 40.8 (Table 16)) it was 1.2%; in series [1] (20 micro-M, Nil 40.8 (Table 16)), 0.6%. In series [1], the “NK toxicity / effect” value is “a very potent NK toxin”.

Consider `CC[C@H](C)[C@H](N)C(=O)OC` [Ile-OMe, reference compound], for which, in series [1], the “prevention of Leu-OMe ablation of NK activity” value was “largely prevented” and the “permanent effect on NK function” value is given as “neither chloroquine, NH4 Cl, nor Ile-OMe had any substantial permanent effect on NK function”.

In the case of `COC(=O)[C@H](CCCNC(=N)N)NC(=O)[C@@H](N)CC(C)C` [Leu-Arg-OMe], in series [1], the “NK toxicity / effect” value is listed as “no observed NK inhibitory effects”.

On to `COC(=O)CNC(=O)[C@@H](N)CC(C)C` [Leu-Gly-OMe] (H-Leu-Gly-OMe), for which the “NK toxicity / effect” value in series [1] was “greatly reduced NK toxicity”.

Take `COC(=O)[C@H](CC(C)C)NC(=O)[C@H](CC(C)C)NC(=O)[C@@H](N)CC(C)C` [Leu-Leu-Leu-OMe] (H-Leu-Leu-Leu-OMe): in series [2], the “competitive inhibition” value is given as “do not competitively inhibit PBL uptake of L-Leu-L-Leu-OMe”. In addition, the inhibition at 250 µM in series [2] (setting [5]) is 6%. For the same compound, in series [1] (MP-depleted lymphocytes (FIG. 4)), the “concentration required for effect equivalent to Leu-Leu-OMe” value was 5 fold. Further, the “NK toxicity / effect” value in series [1] is on record as “caused dose-dependent loss of NK function”.

For `CC(C)C[C@H](NC(=O)[C@@H](N)CC(C)C)C(N)=O` [Leu-Leu-NH2], the “competitive inhibition” value in series [2] was “do not competitively inhibit PBL uptake of L-Leu-L-Leu-OMe”. Further, the inhibition at 250 µM in series [2] (setting [5]) came out at 8%. Besides, the “NK Function % Specific Lysis K562” value in series [1] (1.00 micro-M, Nil 66 (Table 14)) is given as 66%; in series [1] (250.00 micro-M, Nil 66 (Table 14)), 71%. The “NK toxicity / effect” value in series [1] was “no discernible toxicity for NK Cells”.

With `CC(C)C[C@H](NC(=O)[C@@H](N)CC(C)C)C(=O)OCc1ccccc1` [Leu-Leu-OBenzyl, L-leucyl-L-leucyl benzyl ester], the “competitive inhibition” value in series [2] is given as “competitively inhibited”. Besides, the inhibition at 250 µM in series [2] (setting [5]) is 87%. For the same compound, the “potency relative to Leu-Leu-OMe in depleting human PBL of cytotoxic lymphocytes” value in series [1] is given as “greater than twofold more potent than Leu-Leu-OMe”. Moreover, the “NK Function % Specific Lysis K562” value in series [1] (6.25 micro-M during preincubation, Nil 66 (Table 14)) is 62%; in series [1] (12.50 micro-M, Nil 66 (Table 14)), below 1%; in series [1] (25.00 micro-M, Nil 66 (Table 14)), 1%. Moreover, in series [1], the “NK toxicity / effect” value is recorded as “ablates human NK activity”.

As for `CC(C)C[C@H](N)C(=O)N[C@@H](Cc1ccccc1)C(=O)O` [Leu-Phe, L-leucyl L-phenylalanine, reference compound] (H-Leu-Phe-OH), in series [1], the “effect of unesterified dipeptides on NK cell survival or lytic activity” value (from here on “effect of unesterified dipeptides”) is given as “had no effect on NK cell survival or lytic activity”.

As for `COC(=O)[C@H](Cc1ccc(O)cc1)NC(=O)[C@@H](N)CC(C)C` [Leu-Tyr-OMe] (H-Leu-Tyr-OMe), the “competitive inhibition” value in series [2] was “excellent competitive inhibitors of [^3 H]Leu-Leu-OMe uptake”. Moreover, the inhibition at 250 µM in series [2] (setting [3]) was 86%. Further, in series [1], the “NK Toxicity (LD50)” value is above 250 micro-M and the “NK toxicity / effect” value was “no observed NK inhibitory effects; also recorded: little or no toxicity for NK cells”.

Consider `CC(C)C[C@H](N)C(=O)O` [Leucine, L-leucine, reference compound], for which the “NK toxicity / effect” value in series [1] is given as “had no irreversible effect on NK function”.

In the case of `COC(=O)[C@H](CC(C)C)NC(=O)[C@@H](N)CCCCN` [Lys-Leu-OMe] (H-Lys-Leu-OMe), the “NK toxicity / effect” value in series [1] is “no observed NK inhibitory effects”.

As to `Cl.N` [NH4 Cl, reference compound], in series [1], the “prevention of Leu-OMe ablation of NK activity” value is “largely prevented” and the “permanent effect on NK function” value is on record as “neither chloroquine, NH4 Cl, nor Ile-OMe had any substantial permanent effect on NK function”.

Take `CC(C)C[C@H](NC(=O)[C@@H](N)Cc1ccccc1)C(=O)O` [Phe-Leu, L-phenylalanyl L-leucine, reference compound] (H-Phe-Leu-OH): the “effect of unesterified dipeptides” value in series [1] is “had no effect on NK cell survival or lytic activity”.

For `COC(=O)[C@H](CC(C)C)NC(=O)[C@@H](N)Cc1ccccc1` [Phe-Leu-OMe] (H-Phe-Leu-OMe), the “NK toxicity / effect” value in series [1] is listed as “produced concentration-dependent ablation of NK function at concentrations comparable to those at which Leu-Leu-OMe was active”.

`COC(=O)[C@@H](NC(=O)[C@@H](N)Cc1ccccc1)C(C)C` [Phe-Val-OMe] (H-Phe-Val-OMe): the “NK toxicity / effect” value in series [1] is listed as “markedly less active than Val-Phe-OMe”.

As for `COC(=O)[C@H](CC(C)C)NC(=O)[C@@H]1CCCN1` [Pro-Leu-OMe] (H-Pro-Leu-OMe), the “competitive inhibition” value in series [2] is reported as “not competitively inhibited”. Also, the inhibition at 250 µM in series [2] (setting [3]) was -18%. In series [1], the “NK Toxicity (LD50)” value is above 250 micro-M and the “NK toxicity / effect” value is “exhibit no NK toxicity”.

As to `COC(=O)[C@H](CC(C)C)NC(=O)[C@@H](N)CO` [Ser-Leu-OMe] (H-Ser-Leu-OMe), the “competitive inhibition” value in series [2] is “excellent competitive inhibitors of [^3 H]Leu-Leu-OMe uptake”. Besides, the inhibition at 250 µM in series [2] (setting [3]) was determined as 94%. In series [1], the “NK Toxicity (LD50)” value is given as above 250 micro-M and the “NK toxicity / effect” value was “no observed NK inhibitory effects; also recorded: little or no toxicity for NK cells”.

In the case of `CC(C)C[C@H](NC(=O)[C@@H](N)C(C)C)C(=O)O` [Val-Leu, L-valyl L-leucine, reference compound] (H-Val-Leu-OH), in series [1], the “effect of unesterified dipeptides” value is reported as “had no effect on NK cell survival or lytic activity”.

For the compound `COC(=O)[C@H](CC(C)C)NC(=O)[C@@H](N)C(C)C` [Val-Leu-OMe] (H-Val-Leu-OMe), in series [1], the “NK toxicity / effect” value is “produced concentration-dependent ablation of NK function at concentrations comparable to those at which Leu-Leu-OMe was active”.

On to `CC(C)[C@H](N)C(=O)N[C@@H](Cc1ccccc1)C(=O)O` [Val-Phe, L-valyl L-phenylalanine, reference compound] (H-Val-Phe-OH), for which the “effect of unesterified dipeptides” value in series [1] is recorded as “had no effect on NK cell survival or lytic activity”.

For `COC(=O)[C@H](Cc1ccccc1)NC(=O)[C@@H](N)C(C)C` [Val-Phe-OMe] (H-Val-Phe-OMe), the inhibition at 250 µM in series [2] (setting [3]) stood at 75%. Further, in series [1], the “NK Toxicity (LD50)” value turned out to be 24 micro-M and the “NK toxicity / effect” value is “produced concentration-dependent ablation of NK function at concentrations comparable to those at which Leu-Leu-OMe was active; also recorded: among the most potent of the NK toxic dipeptide methyl esters”.

Consider `COC(=O)[C@@H](NC(=O)[C@@H](N)C(C)C)C(C)C` [Val-Val-OMe] (H-Val-Val-OMe), for which, in series [1], the “NK toxicity / effect” value is recorded as “less active than either Leu-Val-OMe or Val-Leu-OMe”.

Take zinc [reference compound]: in series [1] (added with Leu-Leu-OMe), the “effect on Leu-Leu-OMe mediated NK toxicity” value is given as “appeared to inhibit this Leu-Leu-OMe toxicity”.
